Measured values from patent US8093286B2, “Methods for treatment with bucindolol based on genetic targeting” (The Regents of the University of Colorado, a body corporate, priority 2004, dated 2012).
“And” between values parts separate entries of the source, which are not always exact repeats. Identical values can stand only once. Counter-ions that a name gives are not always drawn. Marks after values point to notes of the source that are not given here.

Tested on: patients with Class III/IV heart failure
Assay: BEST trial, bucindolol vs placebo, clinical outcomes incl. DNA substudy and norepinephrine-change analyses
Format: in vivo
Conditions: for hazard ratio for hospitalizations, bucindolol vs placebo: adjusted for position 49; for Crude mortality: bucindolol group; for Mortality (M) hazard ratio, NE change quartile 2nd/1st / Mortality (M) hazard ratio, NE change quartile 3rd/1st / Mortality (M) hazard ratio, NE change quartile 4th/1st / Mortality + CHF hospitalization (M + H) hazard ratio, NE change quartile 2nd/1st / Mortality + CHF hospitalization (M + H) hazard ratio, NE change quartile 3rd/1st / Mortality + CHF hospitalization (M + H) hazard ratio, NE change quartile 4th/1st: within bucindolol group; for hazard ratio for survival, bucindolol vs placebo: adjusted for position 49 variants, age, sex, race
Excerpt: Patients who participated in the Beta Blocker Evaluation of Survival Trial (BEST), (Lowes et al., 2002) and who consented for DNA substudies, were genotyped at the coding β1AR polymorphic sites. Enrollment in BEST was from May 31, 1995 to Dec. 31, 1998; the study design has been described in detail elsewhere (BEST Trial Investigators, 2001; and Lowes et al., 2002). Briefly, the study was a randomized, multicenter, placebo-controlled trial of the 3rd generation, nonselective β-blocker-vasodilator bucindolol (Bristow, 2000) in 2708 patients with Class III/IV heart failure (BEST Trial Investigators, 2001). Those receiving the active drug were administered 3 mg bucindolol twice daily for the first week, and up-titrated as tolerated on a weekly basis to 50 mg twice daily (or 100 mg twice daily for patients weighing >75 kg). Of the 2708 patients, 1040 consented for the substudy and had adequate DNA prepared from a blood sample. The study was approved by the BEST DNA Oversight Committee and the University of Cincinnati Institutional Review Board.
DNA was extracted from whole blood using standard techniques (Jones, 1963). Genotyping was performed using methods exactly as previously described in detail (Small et al., 2002). For the β1AR, variations at coding nucleotides 145 and 1165 were delineated, which correspond to amino acids 49 and 389. These alleles are designated as β1-Ser49, β1-Gly49 and β1-Arg389, β1-Gly389. All the DNA samples were successfully genotyped at the β1AR-389 locus and 1030 were successfully genotyped at β1AR-49.
The primary endpoints were all-cause mortality, hospitalizations adjudicated by an endpoints committee (BEST Trial Investigators, 2001) to be due to heart failure, and the combined endpoint of death or heart failure hospitalization. The variants at amino acid position 389 of the β1AR (Arg and Gly) were considered the primary genotypes hypothesized to influence […] efficacy. Continuous clinical variables are reported as mean ±SD, and comparisons were by t-test or Wilcoxon rank-sum tests. Categorical variables are reported as proportions and comparisons were by chi-square or Fisher's exact tests. Cumulative survival curves were constructed by Kaplan-Meier methods (Kaplan et al., 1958); and SAS (r) proprietary software, release 6.12. Cary, N.C.: SAS Institute, 1996). The Cox proportional-hazards regression model was used to examine the effects of treatment stratified by the indicated genotype. Results were adjusted for age, sex, race, and, as indicated, the β1-Gly49 polymorphism. Because of the limited number of comparisons, and an a priori hypothesis that was based on cell, transgenic, and other human studies […] Perez et al., 2003); and Wagoner et al., 2002), the P values <0.05 were considered to as significant, without adjustments for multiple comparisons.
Norepinephrine levels at baseline, or the change at 3 months were used to predict survival and the combined endpoint of mortality+CHF hospitalization. Absolute and log transformed data were initially analyzed. Because of skewness in norepinephrine levels natural log (Ln) transformed data were used in multivariate Cox proportional hazards regression models.
A Maximum Likelihood based method (Kalbfleisch et al., 1980) was used to categorize changes in norepinephrine into 3 groups for prediction of mortality or mortality+CHF hospitalization. This partitioning method finds the optimal split of norepinephrine values that maximize the likelihood of the resulting Cox proportional hazards model. In addition, a flexible cubic spline analysis (Green et al., 1994) was used to determine the shape and significance level of the relationship of norepinephrine changes at 3 months to survival.

[1] = 1st quartile of absolute NE change
[2] = 2nd quartile of absolute NE change
[3] = 3rd quartile of absolute NE change
[4] = 4th quartile of absolute NE change
[5] = BEST α2c DEL carrier (n = 207/1036)
[6] = BEST β1 389Arg/Arg + α2c DEL carriers (n = 73/1036)
[7] = BEST β1 389Arg/Arg + α2c WT/WT (n = 418/1036)
[8] = BEST β1 389 Gly carriers + DEL carriers (n = 134/1036)
[9] = BEST β1 389 Gly carriers + α2c WT/WT (n = 411/1036)
[10] = absolute NE change at 3 months, pg/ml
[11] = β1 389Arg/Arg and α2c WT/WT patients

CC(C)(Cc1c[nH]c2ccccc12)NCC(O)COc1ccccc1C#N (stereo not drawn) [bucindolol, (2-{2-hydroxy-3{{2-(3-indolyl)-1,1-dimethylethyl}amino}propoxy}-benzonitrile hydrochloride)]
bucindolol/placebo hazard ratio, mortality (M) (1st quartile of % NE change): 1.03 | bucindolol/placebo hazard ratio, mortality + CHF hospitalization (M + H) (1st quartile of % NE change): 1.14 | bucindolol/placebo hazard ratio, mortality (M) [1]: 0.96 | bucindolol/placebo hazard ratio, mortality + CHF hospitalization (M + H) [1]: 1.19 | bucindolol/placebo hazard ratio, mortality (M) (2nd quartile of % NE change): 0.98 | bucindolol/placebo hazard ratio, mortality + CHF hospitalization (M + H) (2nd quartile of % NE change): 1.39 | bucindolol/placebo hazard ratio, mortality (M) [2]: 0.98 | bucindolol/placebo hazard ratio, mortality + CHF hospitalization (M + H) [2]: 1.30 | bucindolol/placebo hazard ratio, mortality (M) (3rd quartile of % NE change): 0.56 | bucindolol/placebo hazard ratio, mortality + CHF hospitalization (M + H) (3rd quartile of % NE change): 0.65 | bucindolol/placebo hazard ratio, mortality (M) [3]: 0.63 | bucindolol/placebo hazard ratio, mortality + CHF hospitalization (M + H) [3]: 0.58 | bucindolol/placebo hazard ratio, mortality (M) (4th quartile of % NE change): 0.90 | bucindolol/placebo hazard ratio, mortality + CHF hospitalization (M + H) (4th quartile of % NE change): 0.66 | bucindolol/placebo hazard ratio, mortality (M) [4]: 0.80 | bucindolol/placebo hazard ratio, mortality + CHF hospitalization (M + H) [4]: 0.74 | hazard ratio of subsequent mortality with norepinephrine reduction at 3 months (likelihood analysis) (153 bucindolol subjects, NE reduction ≧244.5 pg/ml): 1.69 | hazard ratio for hospitalizations, bucindolol vs placebo (Arg389 homozygotes): 0.63 | HF Hospitalization hazard ratio, bucindolol vs placebo [5]: 0.76; 67 Ev | Mortality + HF Hospitalization hazard ratio, bucindolol vs placebo [5]: 0.89; 84 Ev | HF Hospitalization hazard ratio, bucindolol vs placebo (BEST α2c WT/WT (n = 829/1036)): 0.74; 267 Ev | Mortality + HF Hospitalization hazard ratio, bucindolol vs placebo (BEST α2c WT/WT (n = 829/1036)): 0.72; 341 Ev | Mortality hazard ratio, bucindolol vs placebo (BEST α2c WT/WT (n = 829/1036)): 0.70; 155 Ev | HF Hospitalization hazard ratio, bucindolol vs placebo (BEST β1 389Arg/Arg (n = 493/1040), hydrochloride): 0.64 and 0.64; 154 | HF Hospitalization hazard ratio, bucindolol vs placebo [6]: 0.81; 73 Ev | Mortality + HF Hospitalization hazard ratio, bucindolol vs placebo [6]: 0.85; 34 Ev | Mortality hazard ratio, bucindolol vs placebo [6]: 0.71; 13 Ev | HF Hospitalization hazard ratio, bucindolol vs placebo [7]: 0.59; 126 Ev | Mortality + HF Hospitalization hazard ratio, bucindolol vs placebo [7]: 0.61; 156 Ev | Mortality hazard ratio, bucindolol vs placebo [7]: 0.60; 69 Ev | HF Hospitalization hazard ratio, bucindolol vs placebo [8]: 0.62; 134 Ev | Mortality + HF Hospitalization hazard ratio, bucindolol vs placebo [8]: 0.81; 50 Ev | Mortality hazard ratio, bucindolol vs placebo [8]: 1.35; 24 Ev | HF Hospitalization hazard ratio, bucindolol vs placebo [9]: 0.93; 411 Ev | Mortality + HF Hospitalization hazard ratio, bucindolol vs placebo [9]: 0.86; 185 Ev | Mortality hazard ratio, bucindolol vs placebo [9]: 0.82; 86 Ev | Number of deaths (%) (Bucindolol Incr subgroup, n = 137): 43 (31%)* | Number of deaths (%) (Bucindolol Inter subgroup, n = 551): 114 (21%) | Number of deaths (%) (Bucindolol Redxn subgroup, n = 153): 52 (34%)* | hazard ratio for hospitalizations, bucindolol vs placebo (Gly389 carriers): 0.85 | Crude mortality (1st quartile of % NE change (< −30.2)): 25.2% | Crude mortality (1st quartile of absolute NE change (< −144 pg/ml)): 26.1% | Crude mortality (2nd quartile of % NE change (−30.2 to < −2.5)): 26.0% | Crude mortality (2nd quartile of absolute NE change (−144 to < −9 pg/ml)): 25.7% | Crude mortality (3rd quartile of % NE change (−2.5 to 31.1)): 18.8% | Crude mortality (3rd quartile of absolute NE change (−9 to 111 pg/ml)): 17.7* % | Crude mortality (4th quartile of % NE change (> 31.1)): 29.1% | Crude mortality (4th quartile of absolute NE change (> 111 pg/ml)): 28.6% | increased risk of subsequent mortality with marked norepinephrine reduction at 3 months (bucindolol subgroup with NE reduction ≧244.5 pg/ml (Group 1) vs intermediate change group, hydrochloride): 1.7 fold and 1.65 fold | Mortality hazard ratio, Arg/Arg:Gly carrier (bucindolol-treated, BSL NE 64-356 pg/ml (146)): 0.90 | Mortality hazard ratio, Arg/Arg:Gly carrier (bucindolol-treated, BSL NE 358-545 pg/ml (144)): 0.74 | Mortality hazard ratio, Arg/Arg:Gly carrier (bucindolol-treated, BSL NE 546-2571 pg/ml (149)): 0.68 | Mortality hazard ratio, Arg/Arg:Gly carrier (bucindolol-treated, Group 1, change in NE @ 3 mos <−244 (70)): 1.07 | Mortality hazard ratio, Arg/Arg:Gly carrier (bucindolol-treated, Group 2, change in NE @ 3 mos −244 to 145 (248)): 0.82 | Mortality hazard ratio, Arg/Arg:Gly carrier (bucindolol-treated, Group 3, change in NE @ 3 mos >145 (54)): 0.36 | relatively better mortality reduction of Arg homozygotes vs Gly carriers (bucindolol-treated, increasing norepinephrine group (>145 pg/ml)): 64% | Mortality (M) hazard ratio, NE change quartile 2nd/1st (% NE change at 3 months): 1.14 | Mortality (M) hazard ratio, NE change quartile 3rd/1st (% NE change at 3 months): 0.77 | Mortality (M) hazard ratio, NE change quartile 4th/1st (% NE change at 3 months): 1.19 | Mortality + CHF hospitalization (M + H) hazard ratio, NE change quartile 2nd/1st (% NE change at 3 months): 1.18 | Mortality + CHF hospitalization (M + H) hazard ratio, NE change quartile 3rd/1st (% NE change at 3 months): 0.91 | Mortality + CHF hospitalization (M + H) hazard ratio, NE change quartile 4th/1st (% NE change at 3 months): 1.18 | Mortality (M) hazard ratio, NE change quartile 2nd/1st [10]: 0.99 | Mortality (M) hazard ratio, NE change quartile 3rd/1st [10]: 0.66 | Mortality (M) hazard ratio, NE change quartile 4th/1st [10]: 1.15 | Mortality + CHF hospitalization (M + H) hazard ratio, NE change quartile 2nd/1st [10]: 1.00 | Mortality + CHF hospitalization (M + H) hazard ratio, NE change quartile 3rd/1st [10]: 0.83 | Mortality + CHF hospitalization (M + H) hazard ratio, NE change quartile 4th/1st [10]: 1.10 | increase in CV mortality (α2c DEL 322-325 and β1 389Gly carriers): 36% | increase in cardiovascular mortality (α2c DEL 322-325 carriers): 3% | increase in all-cause mortality (α2c DEL 322-325 carriers who are β1 389Gly carriers, hydrochloride): 36% and 35% | reduction in cardiovascular mortality (α2c WT/WT patients): 41% | reduction in mortality plus HF hospitalization (α2c wild type patients): 28% | reduction in all-cause mortality (α2cAR wild type (WT/WT) patients, hydrochloride): 29% and 30% | reduction in mortality (α2cAR wild type patients who are β1 389Gly carriers (nonsignificant)): 22% | mortality reduction (α2cAR-Del322-325 carriers with β1AR-389Arg/Arg): 18% | increase in all-cause mortality (α2cAR-Del322-325 carriers, hydrochloride): 10% and 9% | reduction in all-cause mortality [11]: 40% | reduction in cardiovascular mortality [11]: 47% | reduction in mortality + heart failure hospitalization [11]: 39% | reduction in cardiovascular mortality (β1 389Arg/Arg patients): 46% | reduction in all-cause mortality (β1 389Gly carriers (nonsignificant)): 10% | reduction in cardiovascular mortality (β1 389Gly carriers (p=NS)): 22% | reduction in HF hospitalization (β1-389 Arg/Arg + α2c wild type patients): 41% | hazard ratio for survival, bucindolol vs placebo (β1-Arg389 homozygotes): 0.62 | hazard ratio for survival, bucindolol vs placebo (β1-Gly389 carriers): 0.89 | reduction in all-cause mortality (improvement in survival) (β1AR-389Arg/Arg patients): 38%
